Experimental data reported in US12129312B2, “Peptide compound, application thereof and composition containing same” (priority 2017, dated 2024).
Square brackets hold non-standard residues; d marks the D form. Peptide text beside a SMILES is read from it. * marks the point of attachment. Hydrocinnamoyl = O=C(CCc1ccccc1)*; Tic = O=C(O)[C@@H]1Cc2ccccc2CN1; NMeL = CN[C@@H](CC(C)C)C(=O)O

Key:
Assay type in all cases: in vitro ADME
[1] = Plasma stability, rat plasma; settings: 37° C., time points 0 minute, 1, 2 and 4 hours, LC-MS/MS, read-out: Rat plasma (T1/2 (h)) (converted)
Procedure: (§1) 1. Preparation of 50 mM Phosphate Buffer (50 mM Sodium Phosphate and 70 mM NaCl):
(§2) 5.750 g of Na2HPO4, 1.141 g of NaH2PO4 and 4.095 g of NaCl (Shanghai Titan) were weighed and dissolved in 1000 mL of ultrapure water and the pH was adjusted to 7.4. The prepared phosphate buffer was stored in the refrigerator at 4° C., valid for one week.
(§3) 2. Preparation of Compound Stock Solution:
(§4) 1) 5 mg/mL test compound: 5 mg of compound was weighed and dissolved in 1 mL of DMSO.
(§5) 2) 20 mM control: 2.728 mg of nococaine was dissolved in 0.5 mL of DMSO. 3.878 mg of fenfluramide was dissolved in 0.5 mL of DMSO (Amresco).
(§6) 3. Preparation of Experimental Plasma:
(§7) The frozen plasma (human: Shanghai ChemPartner, Rat, Mouse: Shanghai Xipuer-Beikai, Dog, Monkey: Suzhou Xishan Zhongke) was taken out from the −80° C. refrigerator, immediately placed in a 37° C. water bath, and thawn with gentle shaking. The thawed plasma was poured into a centrifuge tube, and centrifuged at 3000 rpm for 8 minutes. The supernatant was collected for the experiment. The pH of the plasma was measured with a pH meter (METTLER TOLEDO), and only the plasma with a pH between 7.4 and 8 was used for the experiment. The plasma was placed on an ice bath for later use.
4. Preparation of the Dosing Solution: […]

[2] = Plasma stability, human plasma; settings: 37° C., time points 0 minute, 1, 2 and 4 hours, LC-MS/MS, read-out: Human plasma (T1/2 (h)) (converted)
Procedure: as §1, §2, §3, §4, §5, §6, §7
(§8) 4. Preparation of the Dosing Solution:
(§9) 1) 125 μg/mL test compound solution: 5 μL of 5 mg/mL test compound (see step 2) was added to 195 μL DMSO; 500 μM control solution: 20 mM control stock solution (see step 2) was added to 195 μL DMSO.
(§10) 2) 0.5% BSA phosphate buffer solution: 0.05 g of BSA was added to 10 mL of phosphate buffer (see step 1).
(§11) 3) 5 μg/mL test compound dosing solution: 40 μL of 125 μg/mL test compound solution was added to 960 μL of 0.5% BSA phosphate buffer solution, shaken and mixed evenly, and the dosing solution was placed in a 37° C. water bath and preheated for 5 minutes.
(§12) 20 μM control dosing solution: 40 μL of 500 μM control solution was added to 960 μL of 0.5% BSA phosphate buffer solution, shaken and mixed evenly, and the dosing solution was placed in a 37° C. water bath and preheated for 5 minutes.
(§13) 5. 10 μL of 5 μg/mL test compound and 20 μM control solution were added to the wells of the 96-well plate set at different time points (0 minute, 1 hour, 2 hours and 4 hours). The number of duplicate samples was 3.
(§14) 6. 500 μL of ACN (IS) containing 5% FA was added to the wells set at 0 minute. 90 μL of plasma was then added thereto, mixed evenly, sealed with the film and stored at 4° C. (the number of duplicates was 3).
(§15) 7. 90 μL of plasma was added to the wells set at 1 hour, 2 hours and 4 hours (the number of replicates was 3), followed by timing (the final concentration of the test compound was 500 ng/mL, and that of the control was 2 μM).
(§16) 9. All samples (0 minutes, 1 hour, 2 hours, and 4 hours) at different time points on the 96-well plate were placed on a shaker (IKA, MTS 2/4) and shaken at 600 rpm for 60 minutes. The samples were then centrifuged for 15 minutes on a centrifuge machine (Thermo Multifuge×3R) at 5594×g.
(§17) 10. 150 μL of the supernatant was taken out from the centrifuged sample and sent to LC-MS/MS for analysis (conventional peptide LC-MS/MS analysis).

[3] = Plasma stability, mouse plasma; settings: 37° C., 0-4 hours, LC-MS/MS, "Very long" = no significant degradation found in the test (4 hours)
Procedure: as §1, §2, §3, §4, §5, §6, §7, §8, §9, §10, §11, §12, §13, §14, §15, §16, §17

half-life at 500 ng/mL [1]	half-life at 500 ng/mL [2]	Mouse plasma (T1/2 (h)) ([3]; 500 ng/mL)	half-life at 500 ng/mL ([3]; read-out: Mouse plasma (T1/2 (h)) (converted))	Compound
> 71 h	71 h	Very long		CC(C)C[C@@H](C(=O)N1CCC[C@H]1C(=O)N[C@H](CO)C(=O)N[C@@H](CCC(N)=O)C(=O)N[C@@H](Cc1ccccc1)C(=O)N[C@H](C)C(=O)N1Cc2ccccc2C[C@H]1C(=O)N[C@@H](CO)C(=O)O)N(C)C(=O)[C@H](Cc1ccccc1)NC(=O)[C@@H](Cc1ccc(O)cc1)NC(=O)CCc1ccccc1 [YW-111, 3-phenylpropanoyl-(D-Tyr)-Phe-(NMe-Leu)-Pro-(D-Ser)-Gln-Phe-(D-Ala)-Tic-Ser-OH] (Hydrocinnamoyl-[dY]F[NMeL]P[dS]QF[dA][Tic]S-OH)
11.7 h	12.8 h		35.4 h	CC(C)C[C@H](NC(=O)[C@H](Cc1ccccc1)NC(=O)[C@H](N)Cc1ccc(O)cc1)C(=O)N1CCC[C@H]1C(=O)N[C@H](CO)C(=O)N[C@@H](CCC(N)=O)C(=O)N[C@@H](Cc1ccccc1)C(=O)N[C@H](C)C(=O)N1Cc2ccccc2C[C@H]1C(=O)N[C@@H](CO)C(=O)O [YW-3, (D-Tyr)-Phe-Leu-Pro-(D-Ser)-Gln-Phe-(D-Ala)-Tic-Ser, reference compound] (H-[dY]FLP[dS]QF[dA][Tic]S-OH)
